Reference: patent US20230279008A1, “PTGR2 INHIBITORS AND THEIR USE” (National Health Research Institutes, priority 2022, published 2023)

Experiments:
human PTGR2 [1] = biological target: T1, human PTGR2 (Homo sapiens (Human), UniProt Q8N8N7); experiment: In vitro PTGR2 enzyme activity assay (NADPH decrease, Glo-NADPH luminescence); format: biochemical; conditions: 15-keto-PGE2 20 μM, NADPH 20 μM, pH 7.3
Method: In vitro enzyme activity was measured to determine the half maximal inhibitory concentration (IC50) of compounds of this invention as PTGR2 inhibitors. The reduction of 15-keto-PGE2 by PTGR2 requires NADPH. The decrease of NADPH during the reduction reaction indicates […] of PTGR2 and thus is used to calculate the IC50 of a PTGR2 inhibitor. […] The resultant mixture was pre-incubated at room temperature for 15 minutes. After the incubation, 15-keto-PGE2 was added to a final concentration of 20 μM, together with NADPH (20 μM, final concentration) and a Glo-NADPH reagent (commercially available from Promega Corporation, Madison, Wis.).

human PTGR2 [2] = biological target: T1, human PTGR2; experiment: Cell-based GAL4-PPAR luciferase reporter assay in HEK293T cells transfected with human PTGR2; conditions: UASG reporter, GAL4-PPAR and human PTGR2-Tag vectors, luciferase normalized to TK-Rluc
Method: HEK293T cells were seeded at 1×10^5 cells/well in a 24-well plate. […] Cells were treated and harvested in two batches, one after 24 hours and another after 48 hours. The luciferase activity was measured by a Luc-Pair™ Duo-Luciferase HS Assay Kit (commercially available from Promega Corporation) and normalized to the TK-Rluc reporter signal, which was recorded and used to calculate the EC50 value of a PTGR2 inhibitor.

T1 sequence (Q8N8N7 whole entry): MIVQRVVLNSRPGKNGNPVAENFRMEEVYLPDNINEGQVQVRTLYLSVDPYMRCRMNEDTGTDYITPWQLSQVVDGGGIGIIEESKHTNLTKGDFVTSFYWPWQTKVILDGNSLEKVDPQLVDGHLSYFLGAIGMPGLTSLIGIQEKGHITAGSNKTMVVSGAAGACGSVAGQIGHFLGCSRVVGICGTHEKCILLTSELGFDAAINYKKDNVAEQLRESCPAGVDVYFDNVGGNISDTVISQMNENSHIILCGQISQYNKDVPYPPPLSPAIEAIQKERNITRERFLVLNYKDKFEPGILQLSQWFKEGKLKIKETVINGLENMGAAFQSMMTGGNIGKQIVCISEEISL

SMILES	IC50 (human PTGR2 [1])	EC50 (human PTGR2 [2])
COc1ccccc1N1CCN(Cc2nc3[nH]c(C)c(Cc4ccc(Cl)cc4)c(=O)n3n2)CC1 [Compound 1, 6-(4-chlorobenzyl)-2-((4-(2-methoxyphenyl)piperazin-1-yl)methyl)-5-methyl-[1,2,4]triazolo[1,5-a]pyrimidin-7(4H)-one]	0.2 nM	874 nM
Cc1[nH]c2nc(CN3CCN(c4ccccc4)CC3)nn2c(=O)c1Cc1cccc(Cl)c1F [Compound 6, 6-(3-chloro-2-fluorobenzyl)-5-methyl-2-((4-phenylpiperazin-1-yl)methyl)-[1,2,4]triazolo[1,5-a]pyrimidin-7(3H)-one]	0.02 nM	300 nM
Cc1[nH]c2nc(C(C)N3CCN(c4ccccc4)CC3)nn2c(=O)c1Cc1cc(F)c(F)cc1F (centres unmarked) [Compound 7, 5-methyl-2-(1-(4-phenylpiperazin-1-yl)ethyl)-6-(2,4,5-trifluorobenzyl)-[1,2,4]triazolo[1,5-a]pyrimidin-7(4H)-one]	4.1 nM	7 nM
Cc1[nH]c2nc(C(C)N3CCN(c4ccccc4)CC3)nn2c(=O)c1Cc1cccc(F)c1 (centres unmarked) [Compound 10, 6-(3-fluorobenzyl)-5-methyl-2-(1-(4-phenylpiperazin-1-yl)ethyl)-[1,2,4]triazolo[1,5-a]pyrimidin-7(4H)-one]	7.9 nM	77.4 nM
Cc1[nH]c2nc(C(C)N3CCN(c4ccccc4)CC3)nn2c(=O)c1Cc1cccc(Cl)c1 (centres unmarked) [Compound 11, 6-(3-chlorobenzyl)-5-methyl-2-(1-(4-phenylpiperazin-1-yl)ethyl)-[1,2,4]triazolo[1,5-a]pyrimidin-7(3H)-one]	54.3 nM	61.4 nM
Cc1[nH]c2nc(CN3CCN(c4ccccc4)CC3)nn2c(=O)c1Cc1cccc(Cl)c1 [Compound 12, 6-(3-chlorobenzyl)-5-methyl-2-((4-phenylpiperazin-1-yl)methyl)-[1,2,4]triazolo[1,5-a]pyrimidin-7(3H)-one]	0.01 nM	233 nM
Cc1ccc(Cc2c(C)[nH]c3nc(C(C)N4CCN(c5ccccc5)CC4)nn3c2=O)cc1 (centres unmarked) [Compound 17, 5-methyl-6-(4-methylbenzyl)-2-(1-(4-phenylpiperazin-1-yl)ethyl)-[1,2,4]triazolo[1,5-a] pyrimidin-7(4H)-one]	12 nM	104 nM
COc1ccc(Cc2c(C)[nH]c3nc(C(C)N4CCN(c5ccccc5)CC4)nn3c2=O)cc1 (centres unmarked) [Compound 18, 6-(4-methoxybenzyl)-5-methyl-2-(1-(4-phenylpiperazin-1-yl)ethyl)-[1,2,4]triazolo[1,5-a] pyrimidin-7(4H)-one]	1.7 nM	280 nM
Cc1[nH]c2nc(C(C)N3CCN(c4ccccc4)CC3)nn2c(=O)c1Cc1ccc(Cl)cc1 (centres unmarked) [Compound 20, 6-(4-chlorobenzyl)-5-methyl-2-(1-(4-phenylpiperazin-1-yl)ethyl)-[1,2,4]triazolo[1,5-a]pyrimidin-7(4H)-one]	17.2 nM	161 nM
Cc1[nH]c2nc(CN3CCN(c4nccs4)CC3)nn2c(=O)c1Cc1cccc(Cl)c1 [Compound 26, 6-(3-chlorobenzyl)-5-methyl-2-((4-(thiazol-2-yl)piperazin-1-yl)methyl)-[1,2,4]triazolo[1,5-a] pyrimidin-7(3H)-one]	23.5 nM	530 nM
CCCc1cc(=O)[nH]c(SCC(=O)N2CCN(c3ccccc3OC)[C@@H](C)C2)n1 [Compound 28, (S)-2-((2-(4-(2-methoxyphenyl)-3-methylpiperazin-1-yl)-2-oxoethyl)thio)-6-propylpyrimidin-4(3H)-one]	85 nM	108 nM
Cc1[nH]c2nc(C=C3CCN(c4ccccc4)CC3)nn2c(=O)c1Cc1cccc(Cl)c1 [Compound 34, 6-(3-chlorobenzyl)-5-methyl-2-((1-phenylpiperidin-4-ylidene)methyl)-[1,2,4]triazolo[1,5-a] pyrimidin-7(4H)-one]	60.2 nM	427 nM
CCCc1cc(=O)[nH]c(SCC(=O)N2CCN(c3nccs3)CC2)n1 [Compound 46, 2-((2-oxo-2-(4-(thiazol-2-yl)piperazin-1-yl)ethyl)thio)-6-propylpyrimidin-4(3H)-one]	86.9 nM	119 nM
COc1ccccc1N1CCN(C(=O)CSc2nc(C(C)C)cc(=O)[nH]2)C[C@H]1C [Compound 53, (R)-6-isopropyl-2-((2-(4-(2-methoxyphenyl)-3-methylpiperazin-1-yl)-2-oxoethyl)thio)pyrimidin-4(3H)-one]	52.5 nM	207 nM
Cc1[nH]c2nc(C(C)N3CCN(c4ccccc4)[C@H](C)C3)nn2c(=O)c1Cc1ccc(F)cc1 (stereo partly drawn) [Compound 54, 6-(4-fluorobenzyl)-5-methyl-2-(1-((R)-3-methyl-4-phenylpiperazin-1-yl)ethyl)-[1,2,4]triazolo [1,5-a]pyrimidin-7(4H)-one]	31.8 nM	248 nM

Continued by falling IC50 (human PTGR2 [1]), values first:

IC50 (human PTGR2 [1])	EC50 (human PTGR2 [2])	SMILES
81.8 nM	164 nM	CCOc1ccccc1N1CCN(C(=O)CSc2nc(C(C)C)cc(=O)[nH]2)CC1 [Compound 63, 2-((2-(4-(2-ethoxyphenyl)piperazin-1-yl)-2-oxoethyl)thio)-6-isopropylpyrimidin-4(3H)-one]
61.9 nM	19.2 nM	Cc1[nH]c2nc(C(C)N3CCN(c4ccccc4)CC3)nn2c(=O)c1Cc1cccc(C(F)(F)F)c1 (centres unmarked) [Compound 13, 5-methyl-2-(1-(4-phenylpiperazin-1-yl)ethyl)-6-(3-(trifluoromethyl)benzyl)-[1,2,4]triazolo[1,5-a]pyrimidin-7(4H)-one]
43 nM	112 nM	CC(C)c1cc(=O)[nH]c(SCC(=O)N2CCN(c3nccs3)[C@@H](C)C2)n1 [Compound 2, (S)-6-isopropyl-2-((2-(3-methyl-4-(thiazol-2-yl)piperazin-1-yl)-2-oxoethyl)thio)pyrimidin-4(3H)-one]
33.9 nM	64.5 nM	COc1ccc(Cc2c(C)[nH]c3nc(C(C)N4CCN(c5ccccc5)CC4)nn3c2=O)cc1F (centres unmarked) [Compound 15, 6-(3-fluoro-4-methoxybenzyl)-5-methyl-2-(1-(4-phenylpiperazin-1-yl)ethyl)-[1,2,4]triazolo[1,5-a]pyrimidin-7(4H)-one]
12.6 nM	40.5 nM	COc1ccc(Cc2c(C)[nH]c3nc(C(C)N4CCN(c5ccccc5)CC4)nn3c2=O)c(F)c1 (centres unmarked) [Compound 5, 6-(2-fluoro-4-methoxybenzyl)-5-methyl-2-(1-(4-phenylpiperazin-1-yl)ethyl)-[1,2,4]triazolo[1,5-a]pyrimidin-7(4H)-one]
8.9 nM	56.9 nM	Cc1[nH]c2nc(C(C)N3CCN(c4ccccc4)CC3)nn2c(=O)c1Cc1ccc(F)cc1 (centres unmarked) [Compound 19, 6-(4-fluorobenzyl)-5-methyl-2-(1-(4-phenylpiperazin-1-yl)ethyl)-[1,2,4]triazolo[1,5-a]pyrimidin-7(4H)-one]
0.5 nM	174 nM	COc1ccccc1N1CCN(Cc2nc3[nH]c(C)c(Cc4cccc(Cl)c4)c(=O)n3n2)CC1 [Compound 32, 6-(3-chlorobenzyl)-2-((4-(2-methoxyphenyl)piperazin-1-yl)methyl)-5-methyl-[1,2,4]triazolo[1,5-a]pyrimidin-7(3H)-one]
